Experimental data published in PMC7785020, “A unique hormonal recognition feature of the human glucagon-like peptide-2 receptor” (Cell Research, 2020).
Positions count from the first letter of the chain named.

What was measured:
GLP-2R R344^5.40A = target: T1, GLP-2R R344^5.40A (Homo sapiens, UniProt O95838, R344A); test: cAMP accumulation, R344^5.40A; format: cell-based; settings: Table S3, R344A; HEK 293T, 30 min, RT; mean ± SEM, n ≥ 3 in duplicate; read-out: cAMP Emax (% WT)
T1 sequence (O95838 1-553 R344A): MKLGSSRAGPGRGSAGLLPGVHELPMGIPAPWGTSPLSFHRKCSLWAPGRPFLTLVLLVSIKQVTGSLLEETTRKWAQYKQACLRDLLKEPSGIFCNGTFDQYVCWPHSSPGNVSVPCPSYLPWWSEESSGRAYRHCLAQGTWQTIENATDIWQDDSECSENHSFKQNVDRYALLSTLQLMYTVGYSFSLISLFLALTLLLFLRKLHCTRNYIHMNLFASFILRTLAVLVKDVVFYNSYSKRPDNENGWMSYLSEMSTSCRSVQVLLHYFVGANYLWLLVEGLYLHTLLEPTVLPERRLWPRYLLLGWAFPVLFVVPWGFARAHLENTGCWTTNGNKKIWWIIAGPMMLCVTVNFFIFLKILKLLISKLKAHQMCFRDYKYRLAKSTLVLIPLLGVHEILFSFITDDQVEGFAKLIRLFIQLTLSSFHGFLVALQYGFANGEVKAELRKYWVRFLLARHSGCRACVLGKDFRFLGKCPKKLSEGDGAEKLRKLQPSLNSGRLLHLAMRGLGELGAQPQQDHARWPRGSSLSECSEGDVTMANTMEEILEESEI
Protocol: (§1) HEK 293T cells were cultured in Dulbecco’s Modified Eagle’s Medium (DMEM) (Gibco, Waltham, USA) supplemented with 10% (v/v) fetal bovine serum (FBS) (Gibco) and 1% (v/v) sodium pyruvate (Gibco) at 37 °C, 5% CO2 in a humidified incubator. They were seeded onto 6-well cell culture plates and transiently transfected with different GLP-2R constructs using Lipofectamine 2000 transfection reagent (Invitrogen, Carlsbad, CA, USA). After 24 h, the transfected cells were seeded onto 384-well microtiter plates (3000 cells per well) in HBSS supplemented with 5 mM HEPES, 0.1% (w/v) bovine serum albumin (BSA) and 0.5 mM 3-isobutyl-1- methylxanthine, and stimulated with increasing concentrations of GLP-2 for 30 min at RT. Eu and Ulight were diluted by cAMP detection buffer and added to the plates separately to terminate the reaction. Plates were incubated at RT for 60 min before measuring the fluorescence intensity at 620 nm and […] by an EnVision multilabel plate reader (PerkinElmer, Boston, USA).

GLP-2R Y186^1.47A = target: T2, GLP-2R Y186^1.47A (Homo sapiens, UniProt O95838, Y186A); test: cAMP accumulation, Y186^1.47A; format: cell-based; parameters: WT (1–553); expressed in transfected cells; HEK 293T (cAMP); settings: Table S3, Y186A; HEK 293T, 30 min, RT; mean ± SEM, n ≥ 3 in duplicate; read-out: cAMP Emax (% WT)
T2 sequence (O95838 1-553 Y186A): T1 sequence (O95838 1-553 R344A) with Y186A, A344R
Protocol: as §1

Work on `CC[C@H](C)[C@H](NC(=O)[C@H](Cc1ccccc1)NC(=O)[C@H](CC(=O)O)NC(=O)[C@H](CCCNC(=N)N)NC(=O)[C@H](C)NC(=O)[C@H](C)NC(=O)[C@H](CC(C)C)NC(=O)[C@H](CC(N)=O)NC(=O)[C@H](CC(=O)O)NC(=O)[C@H](CC(C)C)NC(=O)[C@@H](NC(=O)[C@@H](NC(=O)[C@H](CC(N)=O)NC(=O)[C@H](CCSC)NC(=O)[C@H](CCC(=O)O)NC(=O)[C@H](CC(=O)O)NC(=O)[C@H](CO)NC(=O)[C@H](Cc1ccccc1)NC(=O)[C@H](CO)NC(=O)CNC(=O)[C@H](CC(=O)O)NC(=O)[C@H](C)NC(=O)[C@@H](N)Cc1c[nH]cn1)[C@@H](C)O)[C@@H](C)CC)C(=O)N[C@@H](CC(N)=O)C(=O)N[C@@H](Cc1c[nH]c2ccccc12)C(=O)N[C@@H](CC(C)C)C(=O)N[C@H](C(=O)N[C@@H](CCC(N)=O)C(=O)N[C@H](C(=O)N[C@@H](CCCCN)C(=O)N[C@H](C(=O)N[C@H](C(=O)N[C@@H](CC(=O)O)C(=O)O)[C@@H](C)O)[C@@H](C)CC)[C@@H](C)O)[C@@H](C)CC` [Human GLP-2 (1–33)] yielded an Emax (GLP-2R R344^5.40A) of 109 ± 2.8% and an Emax (GLP-2R Y186^1.47A) of 100 ± 2.8%.
